Source: BindingDB's records for doi:10.1016/S0960-894X(01)80892-1 (1993)

assay: Binding affinity against sigma receptor in guinea pig brain preparation was estimated using [3H]3-PPP as radioligand

SMILES | Ki
C1=C(c2ccccn2)CCN(CCCCc2ccncc2)C1 [1'-(4-Pyridin-4-yl-butyl)-1',2',3',6'-tetrahydro-[2,4']bipyridinyl] | 44.5 nM
C1=C(c2c[nH]c3ccccc23)CCN(CCCCc2ccncc2)C1 [3-[1-(4-Pyridin-4-yl-butyl)-1,2,3,6-tetrahydro-pyridin-4-yl]-1H-indole] | 10.3 nM
C1=C(c2ccc3ccccc3c2)CCN(CCCCc2ccncc2)C1 [4-[4-(4-Naphthalen-2-yl-3,6-dihydro-2H-pyridin-1-yl)-butyl]-pyridine] | 3.07 nM
C1=C(c2ccccc2)CCN(CCCCc2ccncc2)C1 [4-[4-(4-Phenyl-3,6-dihydro-2H-pyridin-1-yl)-butyl]-pyridine] | 2.72 nM
C1=C(c2cccs2)CCN(CCCCc2ccncc2)C1 [4-[4-(4-Thiophen-2-yl-3,6-dihydro-2H-pyridin-1-yl)-butyl]-pyridine] | 2.13 nM
Cc1ccc(C2=CCN(CCCCc3ccncc3)CC2)cc1 [4-[4-(4-p-Tolyl-3,6-dihydro-2H-pyridin-1-yl)-butyl]-pyridine] | 5.86 nM
Clc1ccc(C2=CCN(CCCCc3ccncc3)CC2)cc1 [4-{4-[4-(4-Chloro-phenyl)-3,6-dihydro-2H-pyridin-1-yl]-butyl}-pyridine] | 1.04 nM
Fc1ccc(C2=CCN(CCCCc3ccncc3)CC2)cc1 [4-{4-[4-(4-Fluoro-phenyl)-3,6-dihydro-2H-pyridin-1-yl]-butyl}-pyridine] | 1.75 nM
COc1ccc(C2=CCN(CCCCc3ccncc3)CC2)cc1 [4-{4-[4-(4-Methoxy-phenyl)-3,6-dihydro-2H-pyridin-1-yl]-butyl}-pyridine] | 0.45 nM
